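Cells were grown in 96-well plates and exposed to each compound for 48 hours at five concentrations; endpoints were interpolated linearly between bracketing concentrations, or set to the highest concentration if not reached. Abbreviation: GI50, concentration required for 50% inhibition of growth. TGI: total growth inhibition.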 *1 amine or outer side, *2 acyl side, *3 side chain or, on linkers, in order; H or OH if unused. Where a SMILES comes first, the peptide text is derived from it. Bridges are numbered along the chain shown (N, C = ends). Roman numbers before positions name the chains, in order. [ ]: non-standard residue; d: D form. ξ: configuration not given here. Actinocin(1to9) = Cc1c2oc3c(C)ccc(C(=O)[*:2])c3nc-2c(C(=O)[*:1])c(N)c1=O; Pro(4-oxo) = O=C1CN[C@H](C(=O)O)C1; Thr(3ξ) = CC(O)[C@H](N)C(=O)O; NMeV = CN[C@H](C(=O)O)C(C)C; Sar = CNCC(=O)O
What was measured:
Assay in all cases: DTP human tumour cell line panel, 48 h
[1] = test system: OVCAR-8 ovarian
[2] = test system: PC-3 prostate
[3] = test system: HL-60(TB) leukemia
[4] = test system: T-47D breast
[5] = test system: UACC-62 melanoma
[6] = test system: SF-295 CNS
[7] = test system: HOP-62 NSCLC
[8] = test system: NCI-H522 lung
[9] = test system: SF-539 CNS
[10] = test system: SK-OV-3 ovarian
[11] = test system: CCRF-CEM leukemia
[12] = test system: MDA-MB-231 breast
[13] = test system: SK-MEL-5 melanoma
[14] = test system: COLO 205 colon
[15] = test system: BT-549 breast
[16] = test system: HS 578T breast
[17] = test system: NCI-H460 lung
[18] = test system: OVCAR-3 ovarian
[19] = test system: HCC-2998 colon
[20] = test system: HCT-15 colon
[21] = test system: NCI-H23 lung
[22] = test system: EKVX NSCLC
[23] = test system: SN12C renal
[24] = test system: MOLT-4 leukemia
[25] = test system: SK-MEL-2 melanoma
[26] = test system: M14 melanoma
[27] = test system: RPMI-8226 leukemia
[28] = test system: SW-620 colon
[29] = test system: OVCAR-4 ovarian
[30] = test system: TK-10 renal
[31] = test system: U251 CNS
[32] = test system: HOP-92 NSCLC
[33] = test system: MDA-MB-435
[34] = test system: OVCAR-5 ovarian
[35] = test system: SNB-75 CNS
[36] = test system: A498 renal
[37] = test system: NCI/ADR-RES ovarian
[38] = test system: MDA-MB-468 breast
[39] = test system: SR leukemia
[40] = test system: KM12 colon
[41] = test system: 786-0 renal
[42] = test system: MALME-3M melanoma
[43] = test system: SF-268 CNS
[44] = test system: SK-MEL-28 melanoma
[45] = test system: SNB-19 CNS
[46] = test system: DU-145 prostate
[47] = test system: K-562 leukemia
[48] = test system: IGROV1 ovarian
[49] = test system: RXF 393 renal

Cc1c2oc3c(C)ccc(C(=O)N[C@@H]4C(=O)N[C@H](C(C)C)C(=O)N5CCC[C@H]5C(=O)N(C)CC(=O)N(C)[C@@H](C(C)C)C(=O)OC4C)c3nc-2c(C(=O)N[C@@H]2C(=O)N[C@H](C(C)C)C(=O)N3CC(=O)C[C@H]3C(=O)N(C)CC(=O)N(C)[C@@H](C(C)C)C(=O)OC2C)c(N)c1=O (stereo partly drawn) (I: [Thr(3ξ)][dV][Pro(4-oxo)][Sar][NMeV] / II: [Thr(3ξ)][dV]P[Sar][NMeV]; ester I:1-I:C, II:1-II:C; linker I:N-II:N via Actinocin(1to9))
GI50 [1]: < 10 nM | TGI [1]: 17700 nM | GI50 [2]: < 10 nM | TGI [2]: 294 nM | GI50 [3]: < 10 nM | TGI [3]: 48.3 nM | GI50 [4]: < 10 nM | TGI [4]: < 10 nM | GI50 [5]: < 10 nM | TGI [5]: < 10 nM | GI50 [6]: < 10 nM | TGI [6]: 92 nM | GI50 [7]: < 10 nM | TGI [7]: < 10 nM | GI50 [8]: < 10 nM | TGI [8]: < 10 nM | GI50 [9]: < 10 nM | TGI [9]: < 10 nM | GI50 [10]: < 10 nM | TGI [10]: 490 nM | GI50 [11]: < 10 nM | TGI [11]: 35.2 nM | GI50 [12]: < 10 nM | TGI [12]: 16.7 nM | GI50 [13]: < 10 nM | TGI [13]: < 10 nM | GI50 [14]: < 10 nM | TGI [14]: < 10 nM | GI50 [15]: < 10 nM | TGI [15]: < 10 nM | GI50 [16]: < 10 nM | TGI [16]: 197 nM | GI50 [17]: < 10 nM | TGI [17]: 10300 nM | GI50 [18]: < 10 nM | TGI [18]: 1980 nM | GI50 [19]: < 10 nM | TGI [19]: < 11.4 nM | GI50 [20]: < 10 nM | TGI [20]: 10100 nM | GI50 [21]: < 10 nM | TGI [21]: < 10 nM | GI50 [22]: < 10 nM | TGI [22]: < 33.2 nM | GI50 [23]: < 10 nM | TGI [23]: 579 nM | GI50 [24]: < 10 nM | TGI [24]: 25.2 nM | GI50 [25]: < 10 nM | TGI [25]: < 10 nM | GI50 [26]: < 10 nM | TGI [26]: < 21.5 nM | GI50 [27]: < 10 nM | TGI [27]: 14.7 nM | GI50 [28]: < 10 nM | TGI [28]: 11300 nM | GI50 [29]: < 10 nM | TGI [29]: 4600 nM | GI50 [30]: < 10 nM | TGI [30]: 6400 nM | GI50 [31]: < 10 nM | TGI [31]: 5750 nM | GI50 [32]: < 10 nM | TGI [32]: < 10 nM | GI50 [33]: < 10 nM | TGI [33]: < 10 nM | GI50 [34]: < 10 nM | TGI [34]: 3200 nM | GI50 [35]: < 10 nM | TGI [35]: < 10 nM | GI50 [36]: < 10 nM | TGI [36]: < 10 nM | GI50 [37]: 52 nM | TGI [37]: 1060 nM | GI50 [38]: < 10 nM | TGI [38]: < 10 nM | GI50 [39]: < 10 nM | TGI [39]: < 10.4 nM | GI50 [40]: < 10 nM | TGI [40]: 6980 nM | GI50 [41]: < 10 nM | TGI [41]: 10300 nM | GI50 [42]: < 10 nM | TGI [42]: < 10 nM | GI50 [43]: < 10 nM | TGI [43]: 1100 nM | GI50 [44]: < 10 nM | TGI [44]: < 10 nM | GI50 [45]: < 10 nM | TGI [45]: 172 nM | GI50 [46]: < 10 nM | TGI [46]: 30300 nM | GI50 [47]: < 10 nM | TGI [47]: 163 nM | GI50 [48]: < 10 nM | TGI [48]: 4590 nM | GI50 [49]: < 10 nM | TGI [49]: < 10 nM

From PubChem BioAssay (NCI)
